Data taken from ChEMBL document CHEMBL3994622, “Design and synthesis of new RAF kinase-inhibiting antiproliferative quinoline derivatives. Part 2: Diarylurea derivatives” (Eur J Med Chem, 2017).

What was measured:
SK-OV-3 = experiment: Growth inhibition of human SKOV3 cells assessed as cell growth at 0.5 uM incubated for 48 hrs by sulforhodamine B assay relative to control; assay type: functional; conditions: SK-OV-3, 48 h, read-out: Activity
786-0 = experiment: Growth inhibition of human 786-0 cells assessed as cell growth at 50 uM incubated for 48 hrs by sulforhodamine B assay relative to control; assay type: functional; conditions: 786-0, 48 h, read-out: Activity
HL-60(TB) = experiment: Growth inhibition of human HL-60(TB) cells assessed as cell growth at 50 uM incubated for 48 hrs by sulforhodamine B assay relative to control; assay type: functional; conditions: HL-60, 48 h, read-out: Activity
HCT-15 = experiment: Growth inhibition of human HCT15 cells assessed as cell growth at 0.05 uM incubated for 48 hrs by sulforhodamine B assay relative to control; assay type: functional; conditions: HCT-15, 48 h, read-out: Activity
Hs-578T = experiment: Growth inhibition of human Hs 578T cells assessed as cell growth at 0.05 uM incubated for 48 hrs by sulforhodamine B assay relative to control; assay type: functional; conditions: read-out: Activity
UACC-62 = experiment: Growth inhibition of human UACC62 cells assessed as cell growth at 50 uM incubated for 48 hrs by sulforhodamine B assay relative to control; assay type: functional; conditions: UACC-62, 48 h, read-out: Activity
T47D = experiment: Growth inhibition of human T47D cells assessed as cell growth at 50 uM incubated for 48 hrs by sulforhodamine B assay relative to control; assay type: functional; conditions: read-out: Activity
CAKI-1 = experiment: Growth inhibition of human Caki1 cells assessed as cell growth at 50 uM incubated for 48 hrs by sulforhodamine B assay relative to control; assay type: functional; conditions: CAKI-1, 48 h, read-out: Activity
SK-MEL-28 = experiment: Growth inhibition of human SK-MEL-28 cells assessed as cell growth at 0.5 uM incubated for 48 hrs by sulforhodamine B assay relative to control; assay type: functional; conditions: SK-MEL-28, 48 h, read-out: Activity
BT-549 = experiment: Growth inhibition of human BT549 cells assessed as cell growth at 0.05 uM incubated for 48 hrs by sulforhodamine B assay relative to control; assay type: functional; conditions: BT-549, 48 h, read-out: Activity
UO-31 [1] = experiment: Growth inhibition of human UO31 cells assessed as cell growth at 50 uM incubated for 48 hrs by sulforhodamine B assay relative to control; assay type: functional; conditions: UO-31, 48 h, read-out: Activity
MOLT-4 = experiment: Growth inhibition of human MOLT4 cells assessed as cell growth at 50 uM incubated for 48 hrs by sulforhodamine B assay relative to control; assay type: functional; conditions: MOLT-4, 48 h, read-out: Activity
TK-10 = experiment: Growth inhibition of human TK10 cells assessed as cell growth at 5 uM incubated for 48 hrs by sulforhodamine B assay relative to control; assay type: functional; conditions: TK-10, 48 h, read-out: Activity
PC-3 = experiment: Growth inhibition of human PC3 cells assessed as cell growth at 0.005 uM incubated for 48 hrs by sulforhodamine B assay relative to control; assay type: functional; conditions: PC-3, 48 h, read-out: Activity
SF-295 = experiment: Growth inhibition of human SF295 cells assessed as cell growth at 0.005 uM incubated for 48 hrs by sulforhodamine B assay relative to control; assay type: functional; conditions: SF-295, 48 h, read-out: Activity
LOX IMVI [2] = experiment: Growth inhibition of human LOXIMVI cells assessed as cell growth at 50 uM incubated for 48 hrs by sulforhodamine B assay relative to control; assay type: functional; conditions: read-out: Activity
HOP-62 = experiment: Growth inhibition of human HOP62 cells assessed as cell growth at 0.005 uM incubated for 48 hrs by sulforhodamine B assay relative to control; assay type: functional; conditions: HOP-62, 48 h, read-out: Activity
A549 [3] = experiment: Growth inhibition of human A549/ATCC cells assessed as cell growth at 0.05 uM incubated for 48 hrs by sulforhodamine B assay relative to control; assay type: functional; conditions: A549, 48 h, read-out: Activity
OVCAR-4 = experiment: Growth inhibition of human OVCAR4 cells assessed as cell growth at 0.005 uM incubated for 48 hrs by sulforhodamine B assay relative to control; assay type: functional; conditions: OVCAR-4, 48 h, read-out: Activity
LOX IMVI [4] = experiment: Growth inhibition of human LOXIMVI cells assessed as cell growth at 0.5 uM incubated for 48 hrs by sulforhodamine B assay relative to control; assay type: functional; conditions: read-out: Activity
M14 = experiment: Growth inhibition of human M14 cells assessed as cell growth at 50 uM incubated for 48 hrs by sulforhodamine B assay relative to control; assay type: functional; conditions: M14, 48 h, read-out: Activity
OVCAR-5 = experiment: Growth inhibition of human OVCAR5 cells assessed as cell growth at 0.5 uM incubated for 48 hrs by sulforhodamine B assay relative to control; assay type: functional; conditions: OVCAR-5, 48 h, read-out: Activity
NCI-H322M = experiment: Growth inhibition of human NCI-H322M cells assessed as cell growth at 5 uM incubated for 48 hrs by sulforhodamine B assay relative to control; assay type: functional; conditions: read-out: Activity
NCI-H460 = experiment: Growth inhibition of human NCI-H460 cells assessed as cell growth at 0.05 uM incubated for 48 hrs by sulforhodamine B assay relative to control; assay type: functional; conditions: NCI-H460, 48 h, read-out: Activity
UO-31 [5] = experiment: Growth inhibition of human UO31 cells assessed as cell growth at 0.5 uM incubated for 48 hrs by sulforhodamine B assay relative to control; assay type: functional; conditions: UO-31, 48 h, read-out: Activity
UACC-257 = experiment: Growth inhibition of human UACC257 cells assessed as cell growth at 0.05 uM incubated for 48 hrs by sulforhodamine B assay relative to control; assay type: functional; conditions: UACC-257, 48 h, read-out: Activity
U-251 = experiment: Growth inhibition of human U251 cells assessed as cell growth at 0.5 uM incubated for 48 hrs by sulforhodamine B assay relative to control; assay type: functional; conditions: U-251, 48 h, read-out: Activity
SN12C = experiment: Growth inhibition of human SN12C cells assessed as cell growth at 0.05 uM incubated for 48 hrs by sulforhodamine B assay relative to control; assay type: functional; conditions: read-out: Activity
SF-268 = experiment: Growth inhibition of human SF268 cells assessed as cell growth at 5 uM incubated for 48 hrs by sulforhodamine B assay relative to control; assay type: functional; conditions: SF-268, 48 h, read-out: Activity
DU-145 = experiment: Growth inhibition of human DU145 cells assessed as cell growth at 50 uM incubated for 48 hrs by sulforhodamine B assay relative to control; assay type: functional; conditions: DU-145, 48 h, read-out: Activity
A549 [6] = experiment: Growth inhibition of human A549/ATCC cells assessed as cell growth at 0.005 uM incubated for 48 hrs by sulforhodamine B assay relative to control; assay type: functional; conditions: A549, 48 h, read-out: Activity
EKVX = experiment: Growth inhibition of human EKVX cells assessed as cell growth at 0.003 uM incubated for 48 hrs by sulforhodamine B assay relative to control; assay type: functional; conditions: read-out: Activity
[7] = molecular target: Vascular endothelial growth factor receptor 2 (Homo sapiens) (UniProt P35968); experiment: Inhibition of human KDR at 10 uM using poly[Glu:Tyr] (4:1) as substrate in presence of [33P]ATP by Hotspot assay relative to control
Chain of Vascular endothelial growth factor receptor 2 (Homo sapiens) (P35968 whole entry): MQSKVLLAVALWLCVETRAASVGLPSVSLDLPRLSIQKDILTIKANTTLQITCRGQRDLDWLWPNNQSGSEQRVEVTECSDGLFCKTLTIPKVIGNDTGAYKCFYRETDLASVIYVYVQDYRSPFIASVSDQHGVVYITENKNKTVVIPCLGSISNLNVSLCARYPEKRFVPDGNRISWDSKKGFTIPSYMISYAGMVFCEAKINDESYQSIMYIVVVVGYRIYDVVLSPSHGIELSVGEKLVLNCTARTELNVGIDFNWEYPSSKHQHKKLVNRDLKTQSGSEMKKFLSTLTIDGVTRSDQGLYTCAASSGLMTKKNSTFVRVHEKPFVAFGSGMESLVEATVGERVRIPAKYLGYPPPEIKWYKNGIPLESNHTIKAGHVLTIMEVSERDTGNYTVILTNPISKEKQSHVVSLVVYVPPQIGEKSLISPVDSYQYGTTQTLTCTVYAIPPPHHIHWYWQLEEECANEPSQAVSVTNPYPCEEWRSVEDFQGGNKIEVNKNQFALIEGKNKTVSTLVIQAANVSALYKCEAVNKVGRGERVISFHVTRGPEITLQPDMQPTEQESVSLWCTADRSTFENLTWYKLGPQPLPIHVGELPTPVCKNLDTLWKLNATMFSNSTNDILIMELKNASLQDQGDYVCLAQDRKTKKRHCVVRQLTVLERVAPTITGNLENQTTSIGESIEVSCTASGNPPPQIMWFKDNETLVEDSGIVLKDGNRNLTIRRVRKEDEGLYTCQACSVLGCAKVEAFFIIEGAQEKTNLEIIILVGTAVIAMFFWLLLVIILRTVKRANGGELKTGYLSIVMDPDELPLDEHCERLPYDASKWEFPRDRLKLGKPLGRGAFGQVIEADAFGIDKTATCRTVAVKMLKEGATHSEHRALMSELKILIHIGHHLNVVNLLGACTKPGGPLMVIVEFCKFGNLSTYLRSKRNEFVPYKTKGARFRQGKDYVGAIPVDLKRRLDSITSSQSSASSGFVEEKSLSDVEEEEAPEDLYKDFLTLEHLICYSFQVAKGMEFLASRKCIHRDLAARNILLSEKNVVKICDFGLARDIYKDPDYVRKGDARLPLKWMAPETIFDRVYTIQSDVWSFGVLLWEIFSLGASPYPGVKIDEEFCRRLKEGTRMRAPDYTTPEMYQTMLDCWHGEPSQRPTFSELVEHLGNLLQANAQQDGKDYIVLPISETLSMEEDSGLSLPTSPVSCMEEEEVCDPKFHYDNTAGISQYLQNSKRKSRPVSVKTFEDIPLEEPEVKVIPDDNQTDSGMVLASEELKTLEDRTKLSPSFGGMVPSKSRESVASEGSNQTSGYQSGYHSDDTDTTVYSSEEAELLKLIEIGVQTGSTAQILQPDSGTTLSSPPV

LOX IMVI [8] = experiment: Growth inhibition of human LOXIMVI cells assessed as cell growth at 0.003 uM incubated for 48 hrs by sulforhodamine B assay relative to control; assay type: functional; conditions: read-out: Activity

## COc1cc2cc(Oc3ccc(NC(=O)Nc4cccc(C(F)(F)F)c4)cc3)c(C)nc2cc1OC
SK-OV-3
  growth at 0.5 µM: 101%
786-0
  growth at 50 µM: -33%
HL-60(TB)
  growth at 50 µM: -43%
HCT-15
  growth at 0.05 µM: 94%
Hs-578T
  growth at 0.05 µM: 100%
UACC-62
  growth at 50 µM: -44%
T47D
  growth at 50 µM: -49%
CAKI-1
  growth at 50 µM: -51%
SK-MEL-28
  growth at 0.5 µM: 92%
BT-549
  growth at 0.05 µM: 84%
UO-31 [1]
  growth at 50 µM: -24%
MOLT-4
  growth at 50 µM: -22%
TK-10
  growth at 5 µM: 19%
PC-3
  growth at 0.005 µM: 94%
SF-295
  growth at 0.005 µM: 90%
LOX IMVI [2]
  growth at 50 µM: -99%
HOP-62
  growth at 0.005 µM: 95%
A549 [3]
  growth at 0.05 µM: 96%
OVCAR-4
  growth at 0.005 µM: 92%
LOX IMVI [4]
  growth at 0.5 µM: 97%
M14
  growth at 50 µM: -61%
OVCAR-5
  growth at 0.5 µM: 119%
NCI-H322M
  growth at 5 µM: 31%
NCI-H460
  growth at 0.05 µM: 106%
UO-31 [5]
  growth at 0.5 µM: 106%
UACC-257
  growth at 0.05 µM: 94%
U-251
  growth at 0.5 µM: 94%
SN12C
  growth at 0.05 µM: 97%
SF-268
  growth at 5 µM: 31%
DU-145
  growth at 50 µM: -32%
A549 [6]
  growth at 0.005 µM: 98%

## COc1cc2cc(Oc3ccc(NC(=O)Nc4ccc(Cl)c(C(F)(F)F)c4)cc3)c(C)nc2cc1OC
EKVX
  growth at 0.003 µM: 103%
[7]
  inhibition: 0.83%
LOX IMVI [8]
  growth at 0.003 µM: 100%
